“Also recorded” adds a separate entry of the source. Where a SMILES comes first, the peptide text is derived from it. [ ]: non-standard residue; d: D form. The star is where a group is joined. Hexanoyl = CCCCCC(=O)*; Ahx = NCCCCCC(=O)O
Experiments:
[1] = Phase I metabolism of Dihexa; assay type: in vitro ADME
c-Met = assay: Augmentation of HGF-dependent c-Met phosphorylation in HEK293 cells; assay type: cell-based, human; conditions: HEK 293 cells treated with HGF+/−Dihexa
Method: augmentation of HGF-dependent c-Met phosphorylation in HEK293 cells, or 2) augmentation of HGF-dependent cell scattering in MDCK cells. All the compounds in Family one were tested using the c-Met phosphorylation assay. […]
Human embryonic kidney cells 293 (HEK293), Madin Darby canine kidney cells (MDCK), and B16F10 murine melanoma cells were grown in DMEM, 10% fetal bovine serum (FBS). Cells were grown to 90-100% confluency before use. For most but not all studies HEK and MDCK cells were serum starved for 24 hours prior to the initiation of drug treatment.
HEK293 cells were seeded in 6 well tissue culture plates and grown to 95% confluency in DMEM containing 10% FBS. The cells were serum deprived for 24 hours prior to the treatment to reduce the basal levels of phospho-Met. […] The lysate was clarified by centrifugation at 15,000 g for 15 minutes, protein concentrations were determined using the BCA total protein assay, and then appropriate volumes of the lysates were diluted with 2× reducing Laemmli buffer and heated for ten minutes at 95° C. […] Proteins were visualized using the Supersignal West Pico Chemiluminescent Substrate system (Pierce, Fenton, Mo.) and molecular weights determined by comparison to protein ladders (BenchMark, Invitrogen; and Kaleidoscope, BioRad). Images were digitized and analyzed using a UVP phosphoimager.

[2] = Metabolic stability in rat serum; assay type: in vitro ADME
Blood stability studies = conditions: not shown
aged rats = assay: Morris water maze, aged rat model; assay type: in vivo; conditions: aged rats of mixed sex; oral Dihexa 2 mg/kg/day, 8 days
Method: Swim speed was determined from these values.

[3] = tested on: Dissociated hippocampal neurons; assay: Neuroprotection from oxidative stress (H2O2); assay type: cell-based; conditions: 100 μM H2O2 24 hrs +/−HGF 5 ng/ml; Dihexa 10^−10 M and 10^−8M
Method: FIG. 40. […] Dissociated hippocampal neurons were treated with 100 μM H2O2 for 24 hrs+/−HGF at sub-threshold concentrations 5 ng/ml and or Dihexa at 2 different concentrations 10^−10 M and 10^−8M. (*p<0.05,**p<0.01).

[4] = Brain distribution of 3H-Dihexa after carotid infusion; assay type: in vivo, rat
Method: FIG. 44. […] Rats fitted with a carotid cannula were anesthetized and infused with 0.5 ml of isotonic saline containing 10 μCi of 3H-Dihexa and 2 μCi ^14C-Inulin, a vascular marker. Thirty minutes after infusion rats were decapitated, the brains removed, and various brain regions dissected. The tissues were then weighed and solubilized with NCS and 10 ml of scintillation was added. Samples were counted with a scintillation counter using two different windows to quantitate both ^3H and ^14C counts. ^3H/^14Cs were determined so that blood derived Dihexa contamination of tissues could be determined. The average ^3H/^14C from blood was 1687.

scopolamine treated rats = assay: Morris water maze, scopolamine amnesia model; conditions: scopolamine ICV
Method: Male Sprague-Dawley rats (Taconic derived) weighing 390-450 g were maintained with free access to water and food (Harland Tekland F6 rodent diet, Madison, Wis.) except the night prior to surgery when food was removed. Each animal was anesthetized with Ketamine hydrochloride plus Xylazine (100 and 2 mg/kg im. respectively; Phoenix Scientific; St. Joseph, Mo., and Moby; Shawnee, Kans.). […] The guide cannula measured 2.5 cm in overall length and was prepared with a heat bulge placed 2.5 mm from its beveled tip, thus acting as a stop to control the depth of penetration. Once in position, the cannula was secured to the skull with two stainless-steel screws and dental cement. Post-operatively the animals were housed individually in an American Accreditation for Laboratory Animal Care-approved vivarium maintained at 22±1° C. on a 12-h alternating light/dark cycle initiated at 06:00 h. All animals were hand gentled for 5 min per day during the 5-6 days of post-surgical recovery. Histological verification of cannula placement was accomplished by the injection of 5 μl fast-green dye via the guide cannula following the completion of behavioral testing.
A black circular platform (diameter: 12 cm; height: 24 cm) was placed 30 cm from the wall and submerged 2 cm below the water surface. The maze was operationally sectioned into four equal quadrants designated NW, NE, SW, and SE. For each rat the location of the platform was randomly assigned to one of the quadrants and remained fixed throughout the duration of training. Entry points were at the quadrant corners (i.e. N, S, E, and W) and were pseudo-randomly assigned such that each trial began at a different entry point than the preceding trial. Three of the four testing room walls were covered with extra-maze spatial cues consisting of different shapes (circles, squares, triangles) and colors. The swimming path of the animals was recorded using a computerized video tracking system (Chromotrack; San Diego Instruments, CA). […] Swim speed was determined from these values.
Each member of the treatment groups in the scopolamine studies received an icy injection of scopolamine hydrobromide (70 nmol in 2 μl aCSF over a duration of 20 s) 30 min prior to testing followed by Dihexa 10 min prior to testing. Control groups received scopolamine or aCSF 20 min prior to testing followed by aCSF 10 min prior testing. […] The rats in the aged rat study on received Dihexa of aCSF (control group). Briefly, acquisition trials were conducted on 8 consecutive days with 5 trials/day. On the first day of training the animal was placed on the platform for 30 s prior to the first trial. Trials commenced with the placement of the rat facing the wall of the maze at one of the assigned entry points. […] Once the animal located the platform it was permitted a 30 s rest period on the platform. […] The next trial commenced immediately following the rest period.
Following day 8 of acquisition training, one additional trial was conducted during which the platform was removed (probe trial). […] Total time spent within the target quadrant where the platform had been located during acquisition and the number of crossings of that quadrant was recorded.

[5] = tested on: Dissociated hippocampal neurons; assay: Neuroprotection from growth factor deprivation; assay type: cell-based; conditions: starved 72 hrs +/−HGF 5 ng/ml; Dihexa 10^−10 M and 10^−8M
Method: FIG. 39. […] Dissociated hippocampal neurons were starved for 72 hrs+/−HGF at sub-threshold concentrations 5 ng/ml and or Dihexa at 2 different concentrations 10^−10 M and 10^−8M. (**p<0.001,***p<0.0001; Mean+/−SEM).

human HGF = target: T1, human HGF (Homo sapiens, UniProt P14210); assay: HGF dimerization; assay type: biochemical; conditions: 30 minutes in the presence of heparin; N=6
T1 construct: purchased R&D Systems (Minneapolis, Minn.)
T1 sequence (P14210 32-728): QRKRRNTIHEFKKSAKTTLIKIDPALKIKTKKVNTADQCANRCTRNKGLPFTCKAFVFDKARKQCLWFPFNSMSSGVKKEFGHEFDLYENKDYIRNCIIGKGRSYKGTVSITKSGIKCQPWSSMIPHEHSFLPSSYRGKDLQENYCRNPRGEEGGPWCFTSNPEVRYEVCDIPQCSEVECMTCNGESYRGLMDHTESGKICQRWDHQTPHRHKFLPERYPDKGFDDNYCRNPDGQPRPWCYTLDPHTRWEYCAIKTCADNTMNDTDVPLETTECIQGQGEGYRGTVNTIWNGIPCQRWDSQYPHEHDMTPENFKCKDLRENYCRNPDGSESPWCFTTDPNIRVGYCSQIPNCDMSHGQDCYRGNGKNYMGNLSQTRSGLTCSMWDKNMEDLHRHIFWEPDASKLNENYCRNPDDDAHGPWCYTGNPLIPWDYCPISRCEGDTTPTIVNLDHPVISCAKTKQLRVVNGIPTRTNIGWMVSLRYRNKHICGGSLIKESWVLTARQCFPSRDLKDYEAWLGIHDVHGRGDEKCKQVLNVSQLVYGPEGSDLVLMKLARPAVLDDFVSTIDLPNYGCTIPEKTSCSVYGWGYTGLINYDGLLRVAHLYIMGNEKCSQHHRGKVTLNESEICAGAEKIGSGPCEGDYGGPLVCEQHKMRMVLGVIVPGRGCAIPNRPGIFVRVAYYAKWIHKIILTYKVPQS
Method: HGF dimerization was assessed using PAGE followed by silver staining (Kawas et al., 2011). Human HGF at a concentration of 0.08 ng/μl with or without 6-AH analogs was incubated with heparin at a final concentration of 5 μg/ml. Loading buffer was then added to each sample and the mixture separated by native PAGE using gradient Criterion XT precast gels (4-12% Bis-Tris; Biorad Laboratories, Hercules, Calif.). Next the gel was silver stained for the detection of the HGF monomers and dimers. Bands were quantitated from digital images using a UVP phosphoimager (Upland, Calif.).

## CCCCCC(=O)N[C@@H](Cc1ccc(O)cc1)C(=O)N[C@H](C(=O)NCCCCCC(N)=O)[C@@H](C)CC [Dihexa, N-hexanoic-Tyr-Ile-(6)-aminohexanoic amide] (Hexanoyl-Tyr-Ile-[Ahx]-NH2)
[1]
  Phase I metabolism: resistant to phase I metabolism; also recorded: undergoes little phase I metabolism
c-Met
  Effect on HGF activation (phosphorylation) of c-Met: dramatically augment the ability of HGF to activate c-Met; also recorded: work synergistically to activate c-Met; also recorded: enhances the activity of HGF shifting its concentration curve to the left
[2]
  t1/2 in rat serum: 5.5 h
Blood stability studies
  Time stable in the blood: over 5 hours
Aged rats
  Water maze performance of aged rats vs untreated controls: preformed significantly better in the water maze than untreated rats; also recorded: performed significantly better than untreated controls; also recorded: significantly improved water maze performance
[3]
  Protection of neurons from oxidative stress: protects neurons from oxidative stress
[4]; thirty minutes after carotid infusion of 3H-Dihexa with 14C-Inulin
  Distribution into brain regions: concentrated in multiple brain regions
[4]; thirty minutes after delivery
  Brain level relative to blood: 40 × blood
[4]; thirty minutes after infusion
  Average 3H/14C from blood: 1687
Scopolamine treated rats; Dihexa ICV high dose (100 μmoles, 100 pmoles elsewhere in the source), 5 trials/day, 8 days
  Water maze latency to find the pedestal: reversal of scopolamine deficits: reversed scopolamine-dependent learning deficits; also recorded: completely overcome the scopolamine deficits
Scopolamine treated rats; Dihexa ICV low dose 10 μmoles
  Water maze latency to find the pedestal: reversal of scopolamine deficits: not 10 μmoles reversed scopolamine-dependent learning deficits
Scopolamine treated rats; Dihexa IP 0.5 mg/kg (high dose)
  Water maze latency to find the pedestal: reversal of scopolamine deficits: completely reverse the deficit seen with scopolamine
Scopolamine treated rats; Dihexa orally 2 mg/kg/day (high dose), 2 mg/kg/day
  Water maze latency to find the pedestal: reversal of scopolamine deficits: no different than controls; also recorded: completely overcome the scopolamine deficits; also recorded: completely reverse the deficit seen with scopolamine; also recorded: completely reverse the deficit produced by scopolamine
[5]
  Protection of neurons from growth factor deprivation: protects neurons from growth factor deprivation
Human HGF
  HGF dimerization: blocks HGF dimerization
